{
  "source": "patent US9801844B2",
  "about": "“Methods and compositions for the treatment of cancer” (priority 2012, dated 2017)",
  "type_in_all_cases": "cell-based",
  "key": {"[1]": {"test_system": "MCF7 (ER positive, Her2 low) cells", "assay": "MTT cell proliferation assay on MCF7 cells", "settings": "Homo sapiens, read-out: IC50 growth inhibition", "protocol": "(§1) MDA-MB-453 (ER negative, Her2 overexpressing), MDA-MB-468 (triple negative) and MCF7 (ER positive, Her2 low) cells, HT29 (p53 positive human colon cancer cells) (ATCC, Manassas, Va.) were grown in Dulbecco's Modified Eagle's medium (DMEM) (Gibco BRL Life Technologies, Inc., Rockville, Md.) containing 10% (v/v) fetal bovine serum (FBS) (Gibco BRL) at 37° C., 5% C02. SUM 149 (Her2 overexpressing, ER low) (the gift of Dr. R. Parsons, Columbia University Medical Center, New York, N.Y.) were cultivated in Ham's F-12 medium with 10% FBS. MCF7 and MCF7/Her2-18 (MCF7 cells transfected with a full length Her2 cDNA coding region, 45-fold increase Her2) were the kind gift of Dr. Dennis Slamon (Los Angeles, Calif.). These cells were maintained in RPMI supplemented with 10% FBS plus glutamine (1%) and PSF (1%) (Gibco, Rockville Md.).\n(§2) MTT assay: the MTT {3-(4,5-dimethyl-2-thiazol)-2,5-diphenyl-2H tetrazolilum bromide} (Dojindo; Tokyo, Japan) cell proliferation assay system (Roche Diagnostic, Mannheim, Germany) was used to determine the sensitivity of the various cell lines to agents. Cells were seeded at 1×10^4 cells/well in 96-well plates and allowed to attach for 24 h. […] The cells were treated for 96 or 120 h, after which they were incubated with MTT reagents and the absorbance read at 650 and 575 nm. For cell growth assays, the data are expressed as mean+/−standard deviation. […]"}, "MCF7/Her2-18 cells": {"test_system": "MCF7/Her2-18 cells", "assay": "MTT cell proliferation assay on MCF7/Her2-18 cells", "settings": "Homo sapiens; MCF7/Her2-18 (45-fold increase Her2); read-out: IC50 growth inhibition", "protocol": "as §1, §2"}, "[2]": {"test_system": "MDA-MB-468 human breast cancer cells", "assay": "Microarray gene expression analysis (Affymetrix, AffyLimma)", "settings": "6 h", "protocol": "MDA-MB-468 cells were treated with 5 μg/mL (15 μM) or 20 μg/mL of CA for 6 or 24 h. RNA was isolated using methods known in the art. Total cellular RNA was extracted using Trizol (Invitrogen; Carlsbad, Calif.) according to the manufacturer's protocol with minor modifications, and then purified twice with Qiagen's RNeasy column. Total RNA (8 μg) was reverse transcribed with T7-(dT)24 primer and Super Script III reverse transcriptase (Invitrogen).\nMicroarray analysis was performed using methods known in the art. Labeled cDNA was generated from MDA-MB-468 cells and hybridized to Affymetrix […] genome arrays at Columbia University following standard Affymetrix protocols. Analysis was performed using the AffyLimmaGUI package in the open-source Bioconductor suite.\nAffy-Limma analysis was used to determine the effects of carnosic acid, at a dose of 20 μg/ml and at 6 h on the gene expression pattern in MDA-MB-468 breast cancer cells. Assays were performed as described in the Materials and methods section. Fold change (log) is the mean of the ratio of hybridization signals in carnosic acid treated vs. control treated cells {40 highest M (log-fold) values; p<0.05}.\nFor gene expression analysis, the samples were analyzed by AffyLima analysis. The statistical significance of differential expression was calculated using the empirical Bayesian LIMMA ([…]) method of Smyth et al. (Smyth, G. K. et al., “Use of within-array replicate spots for assessing differential expression in microarray experiments.” Bioinformatics 2005; 21:2067-75, incorporated herein by reference): B=log e(odds of differential expression), the Bayesian natural (base e) log of the odds that the genes are differentially expressed."}, "[3]": {"test_system": "HT29 human colon cancer cells", "assay": "Proliferation assay (MTT) on HT29 cells", "settings": "1 μg/ml, HT29, 96 h", "protocol": "The HT29 cells were maintained in McCoy's Media containing 10% (v/v) fetal bovine serum (FBS) (Gibco BRL) at 37° C., 5% C02.\nMTT assay: the MTT {3-(4,5-dimethyl-2-thiazol)-2,5-diphenyl-2H tetrazolilum bromide} (Dojindo; Tokyo, Japan) cell proliferation assay system (Roche Diagnostic, Mannheim, Germany) was used to determine the sensitivity of the various cell lines to agents. Cells were seeded at 1×10^4 cells/well in 96-well plates and allowed to attach for 24 h. The medium was replaced with fresh medium containing DMSO or compound. The cells were treated for 96 or 120 h, after which they were incubated with MTT reagents and the absorbance read at 650 and 575 nm. For cell growth assays, the data are expressed as mean+/−standard deviation. Control and treated cells were compared using the student's t-test (p<0.05).\nHT29 (p53 positive human colon cancer cells), as well as MDA-MB-453 Her2 overexpressing ER-negative human breast cancer cells are treated with increasing concentrations of the liposome carnosic acid complex and carnosic acid.\nCells were exposed to increasing concentrations of agents for 96 h and the number of viable cells determined by the MTT assay."}},
  "note": "Several values for one entry are separate records, joined by “and”; a condition that tells them apart may be missing. Equal entries are not always repeated.",
  "data": [
    {"smiles": "CC(C)c1cc2c(c(O)c1O)[C@@]1(C(=O)O)CCCC(C)(C)[C@@H]1CC2", "note": "[carnosic acid]", "values": [
      {"measurement": "IC50", "setting": "[1]", "value": "25 µg/mL and 75 µM"},
      {"measurement": "IC50", "setting": "MCF7/Her2-18 cells", "value": "9 µg/mL and 27 µM"},
      {"measurement": "number of genes altered, p<0.05", "setting": "[2]; 20 μg/ml", "value": 124, "unit": "genes"},
      {"measurement": "ratio of genes activated to suppressed", "setting": "[2]; 20 μg/ml", "value": 4.6},
      {"measurement": "number of genes repressed", "setting": "[2]; higher dose (20 μg/ml)", "value": 22, "unit": "genes"},
      {"measurement": "number of genes whose expression is activated", "setting": "[2]; higher dose (20 μg/ml)", "value": 102, "unit": "genes"},
      {"measurement": "number of genes whose expression is activated", "setting": "[2]; low dose (5 μg/ml), glutathione metabolism and transport genes", "value": 3, "unit": "genes"},
      {"measurement": "M (log-fold) GDF15/LOC100292463 expression", "setting": "[2]; probe 22577_x_at, 20 μg/ml", "value": 3.2033, "unit": "log-fold"},
      {"measurement": "M (log-fold) TXNRD1 expression", "setting": "[2]; probe 201266_at, 20 μg/ml", "value": 1.6785, "unit": "log-fold"},
      {"measurement": "M (log-fold) ELF3 expression", "setting": "[2]; probe 201510_at, 20 μg/ml", "value": "−1.3391", "unit": "log-fold"},
      {"measurement": "M (log-fold) HEXIM1 expression", "setting": "[2]; probe 202814_s_at, 20 μg/ml", "value": "−1.2946", "unit": "log-fold"},
      {"measurement": "M (log-fold) GCLC expression", "setting": "[2]; probe 202922_at, 20 μg/ml", "value": 2.5514, "unit": "log-fold"},
      {"measurement": "M (log-fold) GCLC expression", "setting": "[2]; probe 202923_s_at, 20 μg/ml", "value": 2.3524, "unit": "log-fold"},
      {"measurement": "M (log-fold) HMOX1 expression", "setting": "[2]; probe 203665_at, 20 μg/ml", "value": 6.2079, "unit": "log-fold"},
      {"measurement": "M (log-fold) TTLL4 expression", "setting": "[2]; probe 203702_s_at, 20 μg/ml", "value": 1.4497, "unit": "log-fold"},
      {"measurement": "M (log-fold) GCLM expression", "setting": "[2]; probe 203925_at, 20 μg/ml", "value": 1.6079, "unit": "log-fold"},
      {"measurement": "M (log-fold) CDKN2C expression", "setting": "[2]; probe 204159_at, 20 μg/ml", "value": "−1.5843", "unit": "log-fold"},
      {"measurement": "M (log-fold) PMAIP1 expression", "setting": "[2]; probe 204286_s_at, 20 μg/ml", "value": 1.5443, "unit": "log-fold"},
      {"measurement": "M (log-fold) KIF21B expression", "setting": "[2]; probe 204411 at, 20 μg/ml", "value": 2.0237, "unit": "log-fold"},
      {"measurement": "M (log-fold) CBR3 expression", "setting": "[2]; probe 205379_at, 20 μg/ml", "value": 1.4702, "unit": "log-fold"},
      {"measurement": "M (log-fold) CTH expression", "setting": "[2]; probe 206085_s_at, 20 μg/ml", "value": 2.3083, "unit": "log-fold"},
      {"measurement": "M (log-fold) ABCC2 expression", "setting": "[2]; probe 206155_at, 20 μg/ml", "value": 2.2558, "unit": "log-fold"},
      {"measurement": "M (log-fold) CYP4F3 expression", "setting": "[2]; probe 206515 _at, 20 μg/ml", "value": 2.4762, "unit": "log-fold"},
      {"measurement": "M (log-fold) AKR1B10 expression", "setting": "[2]; probe 206561_s_at, 20 μg/ml", "value": 2.3416, "unit": "log-fold"},
      {"measurement": "M (log-fold) SLC7A11 expression", "setting": "[2]; probe 207528_s_at, 20 μg/ml", "value": 2.3041, "unit": "log-fold"},
      {"measurement": "M (log-fold) ID3 expression", "setting": "[2]; probe 207826_s_at, 20 μg/ml", "value": "−1.9788", "unit": "log-fold"},
      {"measurement": "M (log-fold) DDIT3/NR1H3 expression", "setting": "[2]; probe 209383_at, 20 μg/ml", "value": 1.8207, "unit": "log-fold"},
      {"measurement": "M (log-fold) GRB10 expression", "setting": "[2]; probe 209409_at, 20 μg/ml", "value": 1.6777, "unit": "log-fold"},
      {"measurement": "M (log-fold) RIT1 expression", "setting": "[2]; probe 209882_at, 20 μg/ml", "value": 1.3792, "unit": "log-fold"},
      {"measurement": "M (log-fold) SLC7A11 expression", "setting": "[2]; probe 209921_at, 20 μg/ml", "value": 3.7330, "unit": "log-fold"},
      {"measurement": "M (log-fold) MAP2 expression", "setting": "[2]; probe 210015_s_at, 20 μg/ml", "value": 1.9566, "unit": "log-fold"},
      {"measurement": "M (log-fold) AKR1C2 expression", "setting": "[2]; probe 211653_x_at, 20 μg/ml", "value": 4.1458, "unit": "log-fold"},
      {"measurement": "M (log-fold) ZC3HAV1 expression", "setting": "[2]; probe 213051_at, 20 μg/ml", "value": "−1.5819", "unit": "log-fold"},
      {"measurement": "M (log-fold) AKR1C1 expression", "setting": "[2]; probe 216594_x_at, 20 μg/ml", "value": 3.8405, "unit": "log-fold"},
      {"measurement": "M (log-fold) CTH expression", "setting": "[2]; probe 217127_at, 20 μg/ml", "value": 2.3586, "unit": "log-fold"},
      {"measurement": "M (log-fold) SLC7A11 expression", "setting": "[2]; probe 217678_at, 20 μg/ml", "value": 3.9492, "unit": "log-fold"},
      {"measurement": "M (log-fold) NAMPT expression", "setting": "[2]; probe 217738_at, 20 μg/ml", "value": 1.4857, "unit": "log-fold"},
      {"measurement": "M (log-fold) NAMPT expression", "setting": "[2]; probe 217739_s_at, 20 μg/ml", "value": 1.7329, "unit": "log-fold"},
      {"measurement": "M (log-fold) PHLDA1 expression", "setting": "[2]; probe 217996_at, 20 μg/ml", "value": 1.9833, "unit": "log-fold"},
      {"measurement": "M (log-fold) SLC38A2 expression", "setting": "[2]; probe 218041_x_at, 20 μg/ml", "value": 1.2613, "unit": "log-fold"},
      {"measurement": "M (log-fold) TRIB3 expression", "setting": "[2]; probe 218145_at, 20 μg/ml", "value": 1.6338, "unit": "log-fold"},
      {"measurement": "M (log-fold) KCTD15 expression", "setting": "[2]; probe 218553_s_at, 20 μg/ml", "value": 1.3491, "unit": "log-fold"},
      {"measurement": "M (log-fold) OSGIN1 expression", "setting": "[2]; probe 219475_at, 20 μg/ml", "value": 1.9508, "unit": "log-fold"},
      {"measurement": "M (log-fold) SLC38A2 expression", "setting": "[2]; probe 220924_s_at, 20 μg/ml", "value": 1.2541, "unit": "log-fold"},
      {"measurement": "M (log-fold) RIPK4 expression", "setting": "[2]; probe 221215_s_at, 20 μg/ml", "value": "−1.2540", "unit": "log-fold"},
      {"measurement": "M (log-fold) C9orf91 expression", "setting": "[2]; probe 221865_at, 20 μg/ml", "value": 1.3335, "unit": "log-fold"},
      {"measurement": "M (log-fold) ALDH1A3 expression", "setting": "[2]; probe 222168_at, 20 μg/ml", "value": "−1.4627", "unit": "log-fold"},
      {"measurement": "% proliferation", "setting": "[3]", "value": 99.3, "unit": "%"}
    ]}
  ]
}
